Assay results taken from ChEMBL document CHEMBL5625174, “Are inhibitors of histone deacetylase 8 (HDAC8) effective in hematological cancers especially acute myeloid leukemia (AML) and acute lymphoblastic leukemia (ALL)?” (Eur J Med Chem, 2023).
pIC50: −log10 of the molar value.

How the values were obtained:
Histone deacetylase = assay: Inhibition of HDAC (unknown origin) using Fluoro-Substrate Peptide as substrate by fluorescence assay; assay type: protein assay, Homo sapiens
Histone deacetylase 8 [1] = target: T1, Histone deacetylase 8 (Homo sapiens, UniProt Q9BY41); assay: Inhibition of HDAC8 (unknown origin) by fluorescence based assay
T1 sequence (Q9BY41 whole entry): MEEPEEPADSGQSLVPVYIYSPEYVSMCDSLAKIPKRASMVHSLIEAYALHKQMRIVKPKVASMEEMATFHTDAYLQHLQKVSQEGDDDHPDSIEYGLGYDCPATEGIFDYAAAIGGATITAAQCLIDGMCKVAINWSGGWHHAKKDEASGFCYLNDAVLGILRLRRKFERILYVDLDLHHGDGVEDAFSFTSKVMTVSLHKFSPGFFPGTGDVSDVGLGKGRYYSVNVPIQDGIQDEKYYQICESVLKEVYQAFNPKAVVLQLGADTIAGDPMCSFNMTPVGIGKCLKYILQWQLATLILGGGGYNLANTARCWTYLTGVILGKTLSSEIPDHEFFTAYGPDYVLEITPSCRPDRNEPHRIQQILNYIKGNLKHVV

U-937 = assay: Cytotoxicity against human U-937 cells assessed as reduction in cell viability; assay type: functional, cell-based
Jurkat E6.1 [2] = assay: Cytotoxicity against human Jurkat E6.1 cells assessed as reduction in cell viability; assay type: functional, cell-based
MOLT-4 = assay: Cytotoxicity against human MOLT-4 cells assessed as reduction in cell viability; assay type: functional, cell-based
Histone deacetylase 8 [3] = target: T1, Histone deacetylase 8; assay: Inhibition of human recombinant HDAC8 using fluorogenic HDAC substrate class 2A preincubated for 30 mins followed by substrate addition and measured after 15 mins by fluorogenic assay
Jurkat E6.1 [4] = assay: Cytotoxicity against human Jurkat E6.1 cells assessed as reduction in cell viability incubated for 72 hrs by MTT assay; assay type: functional, cell-based; conditions: Jurkat E6.1, 72 h
Jurkat [5] = assay: Cytotoxicity against human Jurkat cells assessed as reduction in cell viability incubated for 24 hrs by CellTiter-Glo luminescent cell viability assay; assay type: functional
[6] = Inhibition of HDAC6 (unknown origin) assessed as release of fluorogenic AMC pre-incubated for 15 mins followed by addition of trypsin and substrate measured after 60 mins microplate reader analysis; design: species or system Homo sapiens
Histone deacetylase 8 [7] = target: T1, Histone deacetylase 8; assay: Inhibition of HDAC8 (unknown origin)
Histone deacetylase 1 = Histone deacetylase 1 (Homo sapiens, UniProt Q13547); assay: Inhibition of HDAC1 (unknown origin) using Ac-Leu-Gly-Lys(Ac)-AMC as substrate pre-incubated for 30 mins followed by substrate addition and measured after 30 mins by fluorescence based analysis
Histone deacetylase 1, sequence (Q13547 whole entry): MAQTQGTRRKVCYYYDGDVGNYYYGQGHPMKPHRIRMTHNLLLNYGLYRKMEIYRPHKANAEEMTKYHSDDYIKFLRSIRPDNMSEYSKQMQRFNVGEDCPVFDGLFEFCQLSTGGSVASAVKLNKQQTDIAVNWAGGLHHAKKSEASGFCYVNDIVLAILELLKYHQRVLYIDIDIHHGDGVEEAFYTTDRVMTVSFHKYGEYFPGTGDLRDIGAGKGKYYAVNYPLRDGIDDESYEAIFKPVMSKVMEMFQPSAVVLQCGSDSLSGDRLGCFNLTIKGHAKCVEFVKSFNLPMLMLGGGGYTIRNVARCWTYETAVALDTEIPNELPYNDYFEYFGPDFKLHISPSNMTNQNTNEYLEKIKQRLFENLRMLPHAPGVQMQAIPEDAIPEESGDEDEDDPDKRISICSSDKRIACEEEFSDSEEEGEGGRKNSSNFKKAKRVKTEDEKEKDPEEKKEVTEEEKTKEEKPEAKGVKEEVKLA

Histone deacetylase 2 = Histone deacetylase 2 (Homo sapiens, UniProt Q92769); assay: Inhibition of HDAC2 (unknown origin) assessed as release of fluorogenic AMC pre-incubated for 15 mins followed by addition of trypsin and substrate measured after 60 mins microplate reader analysis
Histone deacetylase 2, sequence (Q92769 whole entry): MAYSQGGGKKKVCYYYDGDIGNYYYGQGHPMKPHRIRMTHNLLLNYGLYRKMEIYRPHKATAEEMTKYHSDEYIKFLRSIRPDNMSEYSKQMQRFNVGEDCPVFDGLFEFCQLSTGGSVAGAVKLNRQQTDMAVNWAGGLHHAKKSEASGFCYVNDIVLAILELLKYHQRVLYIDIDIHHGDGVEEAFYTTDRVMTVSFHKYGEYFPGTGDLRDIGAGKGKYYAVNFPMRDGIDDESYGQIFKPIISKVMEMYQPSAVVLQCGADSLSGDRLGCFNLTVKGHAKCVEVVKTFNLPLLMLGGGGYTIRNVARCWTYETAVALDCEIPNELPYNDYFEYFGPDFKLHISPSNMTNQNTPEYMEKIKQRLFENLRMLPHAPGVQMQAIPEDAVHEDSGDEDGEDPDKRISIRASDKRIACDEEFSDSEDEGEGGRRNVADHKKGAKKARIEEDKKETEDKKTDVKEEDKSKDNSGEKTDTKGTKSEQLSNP

Histone deacetylase 4 = Histone deacetylase 4 (Homo sapiens, UniProt P56524); assay: Inhibition of HDAC4 (unknown origin) assessed as release of fluorogenic AMC pre-incubated for 15 mins followed by addition of trypsin and substrate measured after 60 mins microplate reader analysis
Histone deacetylase 4, sequence (P56524 whole entry): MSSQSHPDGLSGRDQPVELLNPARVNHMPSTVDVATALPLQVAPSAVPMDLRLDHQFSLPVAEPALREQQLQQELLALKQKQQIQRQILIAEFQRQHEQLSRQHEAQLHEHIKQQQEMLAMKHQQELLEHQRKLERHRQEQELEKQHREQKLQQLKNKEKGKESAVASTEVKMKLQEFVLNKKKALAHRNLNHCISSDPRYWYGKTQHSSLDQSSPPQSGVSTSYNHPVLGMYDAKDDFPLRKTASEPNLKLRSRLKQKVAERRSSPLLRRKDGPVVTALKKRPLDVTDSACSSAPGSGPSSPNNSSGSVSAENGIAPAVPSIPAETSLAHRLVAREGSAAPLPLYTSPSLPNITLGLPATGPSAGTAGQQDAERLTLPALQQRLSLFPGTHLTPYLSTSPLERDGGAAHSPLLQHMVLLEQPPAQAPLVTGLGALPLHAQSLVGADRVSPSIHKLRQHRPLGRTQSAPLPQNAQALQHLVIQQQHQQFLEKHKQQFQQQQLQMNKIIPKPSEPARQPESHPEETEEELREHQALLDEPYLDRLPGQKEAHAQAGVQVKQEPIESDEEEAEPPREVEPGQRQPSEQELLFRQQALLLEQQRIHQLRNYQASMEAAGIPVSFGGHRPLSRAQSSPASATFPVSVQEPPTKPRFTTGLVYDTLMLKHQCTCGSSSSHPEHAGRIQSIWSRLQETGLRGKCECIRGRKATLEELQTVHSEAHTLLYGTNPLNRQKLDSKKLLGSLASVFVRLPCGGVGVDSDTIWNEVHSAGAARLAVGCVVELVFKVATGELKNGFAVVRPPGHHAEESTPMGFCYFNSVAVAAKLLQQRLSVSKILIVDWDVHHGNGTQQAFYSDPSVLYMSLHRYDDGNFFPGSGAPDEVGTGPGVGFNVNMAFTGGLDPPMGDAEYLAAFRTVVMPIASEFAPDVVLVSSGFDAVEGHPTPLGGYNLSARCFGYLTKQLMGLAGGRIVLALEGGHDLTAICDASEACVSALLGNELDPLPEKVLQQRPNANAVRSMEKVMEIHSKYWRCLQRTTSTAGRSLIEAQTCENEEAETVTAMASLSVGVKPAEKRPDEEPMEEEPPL

Jurkat [8] = assay: cells; assay type: functional; conditions: Homo sapiens
Description: Growth inhibition of human Jurkat cells

[9] = target: T2, Histone deacetylase 8 (Homo sapiens) (UniProt Q9BY41); assay: Inhibition of His-tagged recombinant HDAC8 (unknown origin) at 10 uM using Boc-Lys(triflouroacetyl)-AMC as fluorogenic substrate pre-incubated for 30 mins followed by substrate addition and measured after 30 mins by fluorescence based analysis relative to control; conditions: time 60.0 min
T2 sequence (whole entry): T1 sequence (Q9BY41 whole entry)

Histone deacetylase 3 = Histone deacetylase 3 (Homo sapiens, UniProt O15379); assay: Inhibition of HDAC3 (unknown origin) assessed as release of fluorogenic AMC pre-incubated for 15 mins followed by addition of trypsin and substrate measured after 60 mins microplate reader analysis
Histone deacetylase 3, sequence (O15379 whole entry): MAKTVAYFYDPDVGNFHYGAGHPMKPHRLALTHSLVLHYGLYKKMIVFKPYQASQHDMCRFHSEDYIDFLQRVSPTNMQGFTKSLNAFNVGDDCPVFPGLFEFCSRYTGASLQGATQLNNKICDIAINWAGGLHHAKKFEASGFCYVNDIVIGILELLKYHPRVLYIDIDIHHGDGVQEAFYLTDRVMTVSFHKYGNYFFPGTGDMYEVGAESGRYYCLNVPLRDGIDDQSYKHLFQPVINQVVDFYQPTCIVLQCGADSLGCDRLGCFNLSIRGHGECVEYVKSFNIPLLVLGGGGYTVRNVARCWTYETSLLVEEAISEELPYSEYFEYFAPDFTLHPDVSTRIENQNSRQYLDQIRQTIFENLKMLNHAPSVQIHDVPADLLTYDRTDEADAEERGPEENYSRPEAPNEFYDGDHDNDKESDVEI

Histone deacetylase 8 [10] = target: T1, Histone deacetylase 8; assay: Inhibition of HDAC8 (unknown origin) assessed as release of fluorogenic AMC pre-incubated for 15 mins followed by addition of trypsin and substrate measured after 60 mins microplate reader analysis
[11] = target: T3, Polyamine deacetylase HDAC10 (Homo sapiens, UniProt Q969S8); assay: Inhibition of HDAC10 (unknown origin) assessed as release of fluorogenic AMC pre-incubated for 15 mins followed by addition of trypsin and substrate measured after 60 mins microplate reader analysis
T3 sequence (Q969S8 whole entry): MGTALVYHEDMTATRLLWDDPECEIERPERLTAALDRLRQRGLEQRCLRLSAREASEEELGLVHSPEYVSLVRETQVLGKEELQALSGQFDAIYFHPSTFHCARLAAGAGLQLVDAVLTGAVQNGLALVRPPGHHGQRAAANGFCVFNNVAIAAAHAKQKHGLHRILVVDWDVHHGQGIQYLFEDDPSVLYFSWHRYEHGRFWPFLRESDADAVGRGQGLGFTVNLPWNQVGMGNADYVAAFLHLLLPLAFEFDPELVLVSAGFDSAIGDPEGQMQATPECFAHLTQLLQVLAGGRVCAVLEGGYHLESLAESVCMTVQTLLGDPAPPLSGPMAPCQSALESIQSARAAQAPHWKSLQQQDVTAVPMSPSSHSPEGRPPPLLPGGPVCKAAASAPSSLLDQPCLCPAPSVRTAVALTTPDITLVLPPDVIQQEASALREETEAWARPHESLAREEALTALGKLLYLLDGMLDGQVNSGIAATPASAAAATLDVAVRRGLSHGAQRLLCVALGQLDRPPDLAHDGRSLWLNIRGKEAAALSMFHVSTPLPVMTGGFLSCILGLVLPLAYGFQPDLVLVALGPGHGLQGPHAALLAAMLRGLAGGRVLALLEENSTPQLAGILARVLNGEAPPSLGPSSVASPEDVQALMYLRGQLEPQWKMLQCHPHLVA

For `CCCCCCNC(=O)[C@H](CCC(=O)O)NC(=O)Cc1ccc(-c2ccccc2)cc1`, the IC50 (Histone deacetylase) was > 10 µM and the pIC50 (Histone deacetylase 8 [1]) was < 5.00.

In the case of `O=C(O)CC[C@H](NC(=O)Cc1ccc(Cl)cc1Cl)C(=O)NCc1ccccc1`, the IC50 (Histone deacetylase) was > 10 µM, the pIC50 (Histone deacetylase 8 [1]) was ≥ 5.00 and the pIC50 (U-937) was ≥ 4.46. For the same molecule, the pIC50 (Jurkat E6.1 [2]) was ≥ 4.46 and the pIC50 (MOLT-4) was ≥ 4.46.

`O=C1CN[C@H](Cc2ccccc2)C(=O)N1` gave a pIC50 (Histone deacetylase 8 [3]) of 7.67.

`O=C1CN[C@H](Cc2cc3ccccc3[nH]2)C(=O)N1` showed a pIC50 (Histone deacetylase 8 [3]) of 7.29.

With `O=C(O)CC[C@H](NC(=O)Cc1ccc(Br)cc1)C(=O)NCc1ccc(Cl)cc1` the IC50 (Histone deacetylase) was > 10 µM, the pIC50 (Histone deacetylase 8 [1]) was ≥ 5.00 and the pIC50 (U-937) was < 4.46. For the same molecule, the pIC50 (Jurkat E6.1 [2]) was > 4.46 and the pIC50 (MOLT-4) was > 4.46.

With `O=C(O)CC[C@H](NC(=O)Cc1ccc(Br)cc1)C(=O)NCc1ccccc1Cl` the IC50 (Histone deacetylase) was > 10 µM, the pIC50 (Histone deacetylase 8 [1]) was ≥ 5.00 and the pIC50 (U-937) was < 4.46. For the same molecule, the pIC50 (Jurkat E6.1 [2]) was < 4.46 and the pIC50 (MOLT-4) was > 4.46.

In the case of `O=C(CC[C@H](NC(=O)Cc1ccc(Cl)cc1Cl)C(=O)Nc1ccccc1)NO`, the pIC50 (Jurkat E6.1 [4]) was > 4.30.

With `O=C(O)CC[C@H](NC(=O)Cc1ccc(Br)cc1)C(=O)NCc1ccccc1` the IC50 (Histone deacetylase) was > 10 µM, the pIC50 (Histone deacetylase 8 [1]) was ≥ 5.00 and the pIC50 (U-937) was < 4.46. For the same molecule, the pIC50 (Jurkat E6.1 [2]) was ≥ 4.46 and the pIC50 (MOLT-4) was ≥ 4.46.

In the case of `CCCCCNC(=O)[C@H](CCC(=O)NO)NC(=O)Cc1ccc(Br)cc1`, the pIC50 (Jurkat E6.1 [4]) was < 4.30.

With `O=C(/C=C/C#Cc1cccc(NS(=O)(=O)c2ccccc2)c1)NO` the CC50 (Jurkat [5]) was 5.9 µM.

In the case of `CCCCCCNC(=O)[C@H](CCC(=O)NO)NC(=O)Cc1ccccc1`, the pIC50 (Jurkat E6.1 [4]) was > 4.30.

For `O=C1CN[C@@H](Cc2cc3ccccc3[nH]2)C(=O)N1`, the pIC50 (Histone deacetylase 8 [3]) was 7.97.

In the case of `N[C@H](Cc1cccc(Cl)c1)C(=O)N1CCN(C(=O)c2cc(F)ccc2F)CC1`, the pIC50 [6] was < 4.52.

In the case of `CC(C)CNC(=O)[C@H](CCC(=O)NO)NC(=O)Cc1ccccc1F`, the pIC50 (Jurkat E6.1 [4]) was < 4.30.

In the case of `COc1ccc(-c2cccc(-c3cc(OC)c(OC)c(OC)c3)n2)cc1/C=C/C(=O)NO`, the pIC50 (Histone deacetylase 8 [7]) was 6.93.

With `CCCCCNC(=O)[C@H](CCC(=O)NO)NC(=O)Cc1ccc(Cl)cc1Cl` the pIC50 (Jurkat E6.1 [4]) was > 4.30.

With `O=C(O)CC[C@H](NC(=O)Cc1ccc(-c2ccccc2)cc1)C(=O)NCc1ccccc1` the IC50 (Histone deacetylase) was > 10 µM, the pIC50 (Histone deacetylase 8 [1]) was ≥ 5.00 and the pIC50 (U-937) was > 4.46. For the same molecule, the pIC50 (Jurkat E6.1 [2]) was > 4.46 and the pIC50 (MOLT-4) was > 4.46.

With `CCCCCNC(=O)[C@H](CCC(=O)NO)NC(=O)Cc1ccccc1Br` the pIC50 (Jurkat E6.1 [4]) was < 4.30.

For `O=C(NO)c1cccc(-n2cc(CSc3ccccc3)nn2)c1`, the pIC50 (Histone deacetylase 1) was < 4.00, the pIC50 (Histone deacetylase 2) was < 4.00 and the pIC50 (Histone deacetylase 4) was < 4.00. The pIC50 [6] was 5.66 and the GI50 (Jurkat [8]) was 24 µM.

`CSCC[C@@H]1NCC(=O)NC1=O` showed a pIC50 (Histone deacetylase 8 [3]) of 7.05.

For `CCC(=O)CCCCC[C@@H]1NC(=O)[C@H]2CCCCN2C(=O)[C@H]([C@@H](C)CC)NC(=O)[C@H](Cc2cn(OC)c3ccccc23)NC1=O` [APICIDIN], the CC50 (Jurkat [5]) was 10 µM.

Molecule `CC(C)C[C@H](NC(=O)[C@@H](O)[C@H](N)Cc1ccccc1)C(=O)NCCOCCOCC(=O)Nc1cccc(C(=O)NO)c1` has an inhibition [9] of 71%.

In the case of `COc1ccc(Cn2ccc3ccc(C(=O)NO)cc32)cc1`, the pIC50 [6] was 5.54 and the GI50 (Jurkat [8]) was 2.4 µM.

For `O=C(NO)[C@@H](Cc1ccccc1)n1nnc(-c2ccccc2)c1C#CC1CC1`, the pIC50 (Histone deacetylase 1) was 5.37, the pIC50 (Histone deacetylase 2) was < 4.70 and the pIC50 (Histone deacetylase 3) was < 4.70. The pIC50 (Histone deacetylase 4) was < 4.70, the pIC50 [6] was 5.92 and the pIC50 (Histone deacetylase 8 [10]) was 9.10. The pIC50 [11] was < 4.70.
